According to patent US20250263395A1, “COMPOUNDS THAT MEDIATE PROTEIN DEGRADATION AND METHODS OF USE THEREOF” (Monte Rosa Therapeutics AG, priority 2022, published 2025):

Assays:
CDK2 = CDK2 (Homo sapiens (Human), UniProt P24941); assay: CDK2 NanoBiT assay (HiBiT-tagged CDK2 degradation); assay type: cell-based; conditions: C-terminal HiBiT tag on CDK2, LgBiT, 24 hours; for Dmax: HEK293, HEK293 clonal line
Procedure: Example 145. NanoBiT Assay
A HEK293 clonal line with a CRISPR knock-in C-terminal HiBiT tag on CDK2 and stably expressing LgBiT protein was obtained from Promega (Madison, WI). Cells were plated at 5000 cells per well using Multiflo (BioTek) in 384-well white solid bottom plates (Corning, 3570BC) in 25 ul volume in DMEM media (DMEM, high glucose, HEPES, no phenol red (ThermoFisher Scientific, 21063029)) containing 10% FBS (Corning, 35-075-CV), 1% Peniciliin/Streptomycin ((ThermoFisher Scientific, 15140-122), and 1% Endurazine (Nano-Glo Endurazine Live Cell Substrate (Promega, N2571)). Cells were incubated for 16 hours at 37 C, 5% CO2. 75 nL of a compound at 30 μM were dosed into the plate using an Echo® 650 liquid handler (Labcyte). Cells were incubated at 37° C., 5% CO2 for 24 hours and then signal was read on a Pherastar FSX using “LUM plus” optic module.
Analysis was performed in Scinamic (Scinamic, Cambridge, MA). Luminescence response (R) was calculated by the formula: response=100*(S−N)/(P−N) where S is the signal of the well, N and P the mean negative and positive control values respectively of the same plate. The luminescence response was then fitted in Scinamic using a 3-parameter agonist logistic fit (hillslope=1, EC50>0, top/bottom unconstrained).

CRBN-DDB1 = CRBN-DDB1 (Homo sapiens (Human), UniProt Q96SW2); assay: CRBN HTRF assay (Cy5-Thalidomide probe displacement); assay type: binding; conditions: CRBN-DDB1 2.5 nM, Cy5-Thalidomide 100 nM, 30 min; Ki from geometric mean IC50 by Cheng-Prusoff
Procedure: Compound activity was monitored in a Homogenous Time-Resolved Fluorescence (HTRF) assay using 1-[5-({2-[2-(2-{[2-(2,6-dioxopiperidin-3-yl)-1,3-dioxo-2,3-dihydro-1H-isoindol-4-yl]oxy}acetamido)ethoxy]ethyl}carbamoyl)pentyl]-3,3-dimethyl-2-[(1E,3E)-5-[(2E)-1,3,3-trimethyl-5-sulfo-2,3-dihydro-1H-indol-2-ylidene]penta-1,3-dien-1-yl]-3H-indol-1-ium-5-sulfonate as a fluorescent probe. Biochemical assays were conducted in Greiner white 384 well HiBase plates (Cat. No 784075-25) in 10 μL total volume. A one pot detection solution of CRBN-DDB1 (2.5 nM), Anti-His Terbium Cryptate Gold (1×, PerkinElmer Cat. #: 61HI2TLB), and Cy5-Thalidomide (100 nM, Tenova Cat.: T52461) was prepared in 20 mM HEPES, 20 mM NaCl, 0.2 mM TCEP, 0.2 mM EDTA, and 0.005% Tween20 was dispensed to each assay plate. Compounds were stored in dry, ambient temperatures at 10 mM. A 10-point, 1:3 dilution series was prepared from 10 mM stock concentrations in Echo-compatible LDV plates. 10 nL of each compound dilution series was dispensed into assays wells using an Echo 650 (Labcyte inc. USA). 10 nL of 10 mM Lenalidomide was transferred into the active-control wells for the assay and 10 nL of DMSO was transferred into the neutral-control wells. The assay was then allowed to incubate for 30 min at ambient temperature after transferring compound. Plate measurements were taken on a Pherastar FSX (BMG Labtech, Germany) using the HTRF Red filter (Ex. 337 nm, em1: 620 nm, em2: 665 nm) (Flashes: 50, Integration time: 60-400 us, Z-height: 10 mm, Ratio-multiplier: 10,000). The HTRF signal was then subsequently normalized to the neutral and active controls. Analysis and IC50 values were derived using KNIME analytics (KNIME Zurich) transformation and fitting within Collaborative Drug Discovery (Collaborative Drug Discovery USA). Ki was derived from the geometric mean of the IC50 values using the Cheng-Prustoff transformation.

CRBN-DDB1, sequence (Q96SW2 whole entry): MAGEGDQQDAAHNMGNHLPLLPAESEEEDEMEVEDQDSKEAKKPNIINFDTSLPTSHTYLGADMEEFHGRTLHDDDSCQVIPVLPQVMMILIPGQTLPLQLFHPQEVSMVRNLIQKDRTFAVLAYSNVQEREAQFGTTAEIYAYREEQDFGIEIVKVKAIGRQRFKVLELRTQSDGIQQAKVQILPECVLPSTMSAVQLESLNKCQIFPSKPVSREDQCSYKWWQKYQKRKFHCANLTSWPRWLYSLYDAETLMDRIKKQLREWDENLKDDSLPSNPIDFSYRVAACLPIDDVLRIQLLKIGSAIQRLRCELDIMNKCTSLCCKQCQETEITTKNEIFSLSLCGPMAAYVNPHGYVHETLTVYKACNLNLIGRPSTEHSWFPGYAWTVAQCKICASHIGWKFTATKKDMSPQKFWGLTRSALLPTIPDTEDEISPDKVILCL
CRBN-DDB1, sequence (Q16531 whole entry partner): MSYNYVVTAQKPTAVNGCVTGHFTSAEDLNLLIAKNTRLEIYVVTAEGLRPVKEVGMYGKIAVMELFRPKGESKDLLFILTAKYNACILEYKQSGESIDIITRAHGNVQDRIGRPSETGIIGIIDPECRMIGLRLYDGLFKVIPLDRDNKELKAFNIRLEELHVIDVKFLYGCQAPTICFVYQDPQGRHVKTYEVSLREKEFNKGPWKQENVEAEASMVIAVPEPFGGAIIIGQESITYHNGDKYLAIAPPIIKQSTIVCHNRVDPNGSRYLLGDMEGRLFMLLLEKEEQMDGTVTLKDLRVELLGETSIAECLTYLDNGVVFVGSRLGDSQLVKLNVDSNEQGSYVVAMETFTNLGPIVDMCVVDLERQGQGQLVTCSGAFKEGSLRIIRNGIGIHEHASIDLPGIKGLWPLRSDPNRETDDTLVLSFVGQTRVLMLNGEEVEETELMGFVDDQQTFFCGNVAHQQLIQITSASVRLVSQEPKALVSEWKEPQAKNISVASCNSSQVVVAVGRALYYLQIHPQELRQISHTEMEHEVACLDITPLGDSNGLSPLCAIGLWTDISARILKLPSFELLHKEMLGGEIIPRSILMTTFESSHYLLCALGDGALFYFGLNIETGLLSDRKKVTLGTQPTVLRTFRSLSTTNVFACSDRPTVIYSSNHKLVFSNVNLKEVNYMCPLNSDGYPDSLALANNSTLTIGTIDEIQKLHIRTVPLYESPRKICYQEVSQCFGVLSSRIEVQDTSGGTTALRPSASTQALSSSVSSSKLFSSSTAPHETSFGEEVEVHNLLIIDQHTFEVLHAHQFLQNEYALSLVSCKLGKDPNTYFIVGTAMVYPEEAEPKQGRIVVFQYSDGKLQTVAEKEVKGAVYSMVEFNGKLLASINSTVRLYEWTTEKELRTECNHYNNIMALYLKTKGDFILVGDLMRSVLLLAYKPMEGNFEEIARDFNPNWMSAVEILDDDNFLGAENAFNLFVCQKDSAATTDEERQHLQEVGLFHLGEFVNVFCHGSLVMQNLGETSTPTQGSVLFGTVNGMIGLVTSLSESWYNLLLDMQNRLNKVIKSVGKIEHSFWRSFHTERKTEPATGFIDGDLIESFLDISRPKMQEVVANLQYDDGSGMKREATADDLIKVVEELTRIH

SMILES | Dmax (CDK2) [%] | Ki (CRBN-DDB1) [nM] | CDK2 NanoBiT Dmax (%) (CDK2; HEK293 clonal line)
O=C1CCC(c2c(F)cc(N3CC(NC(=O)OCC4CC5(CCC5)C4)C3)cc2F)C(=O)N1 (stereo not drawn) [Compound 1, spiro[3.3]heptan-2-ylmethyl (1-(4-(2,6-dioxopiperidin-3-yl)-3,5-difluorophenyl)azetidin-3-yl)carbamate] | > 80 |  | 
COc1c(N2CC(C)(NC(=O)OCC3CC4(CCC4)C3)C2)ccc(C2CCC(=O)NC2=O)c1F (stereo not drawn) [Compound 2, spiro[3.3]heptan-2-ylmethyl (1-(4-(2,6-dioxopiperidin-3-yl)-3-fluoro-2-methoxyphenyl)-3-methylazetidin-3-yl)carbamate] | 50 to 80 | 100 to 1000 | 
O=C1CCC(c2c(F)cc(N3CC(NC(=O)OC[C@@H]4C[C@H]5CC[C@@H]4C5)C3)cc2F)C(=O)N1 (stereo partly drawn) [Compound 3, (1R,2R,4S)-bicyclo[2.2.1]heptan-2-ylmethyl (1-(4-(2,6-dioxopiperidin-3-yl)-3,5-difluorophenyl)azetidin-3-yl)carbamate] | > 80 | ≤ 100 | 
O=C1CCC(c2c(F)cc(N3CC(NC(=O)OC45CC(C(=O)c6ccccc6)(C4)C5)C3)cc2F)C(=O)N1 (stereo not drawn) [Compound 4] |  | ≤ 100 | D (D represents Dmax value of >80%)
O=C1CCC(c2c(F)cc(N3CC(NC(=O)OC4CN(C(=O)N5Cc6ccccc6C5)C4)C3)cc2F)C(=O)N1 (stereo not drawn) [Compound 5, 1-(isoindoline-2-carbonyl)azetidin-3-yl (1-(4-(2,6-dioxopiperidin-3-yl)-3,5-difluorophenyl)azetidin-3-yl)carbamate] | 50 to 80 | ≤ 100 | 
Cc1ccnc(N2CC(OC(=O)NC3CN(c4cc(F)c(C5CCC(=O)NC5=O)c(F)c4)C3)C2)c1 (stereo not drawn) [Compound 6, 1-(4-methylpyridin-2-yl)azetidin-3-yl (1-(4-(2,6-dioxopiperidin-3-yl)-3,5-difluorophenyl)azetidin-3-yl)carbamate] | 50 to 80 |  | 
Cn1nccc1N1CC(OC(=O)NC2CN(c3cc(F)c(C4CCC(=O)NC4=O)c(F)c3)C2)C1 (stereo not drawn) [Compound 7, 1-(1-methyl-1H-pyrazol-5-yl)azetidin-3-yl (1-(4-(2,6-dioxopiperidin-3-yl)-3,5-difluorophenyl)azetidin-3-yl)carbamate] | 10 to 50 | ≤ 100 | 
CN(C(=O)N1CC(OC(=O)NC2CN(c3cc(F)c(C4CCC(=O)NC4=O)c(F)c3)C2)C1)c1cccc(Cl)c1 (stereo not drawn) [Compound 8, 1-((3-chlorophenyl)(methyl)carbamoyl)azetidin-3-yl (1-(4-(2,6-dioxopiperidin-3-yl)-3,5-difluorophenyl)azetidin-3-yl)carbamate] | > 80 | ≤ 100 | 
O=C1CCC(c2c(F)cc(N3CC(NC(=O)OC4CN(C(=O)N5CCc6ccccc65)C4)C3)cc2F)C(=O)N1 (stereo not drawn) [Compound 9, 1-(indoline-1-carbonyl)azetidin-3-yl (1-(4-(2,6-dioxopiperidin-3-yl)-3,5-difluorophenyl)azetidin-3-yl)carbamate] | > 80 | ≤ 100 | 
Cc1cccc(N(C)C(=O)N2CC(OC(=O)NC3CN(c4cc(F)c(C5CCC(=O)NC5=O)c(F)c4)C3)C2)c1 (stereo not drawn) [Compound 10, 1-(methyl(m-tolyl)carbamoyl)azetidin-3-yl (1-(4-(2,6-dioxopiperidin-3-yl)-3,5-difluorophenyl)azetidin-3-yl)carbamate] | > 80 |  | 
CN(C(=O)N1CC(OC(=O)NC2(C(F)(F)F)CN(c3cc(F)c(C4CCC(=O)NC4=O)c(F)c3)C2)C1)C1CC1 (stereo not drawn) [Compound 11, 1-(cyclopropyl(methyl)carbamoyl)azetidin-3-yl (1-(4-(2,6-dioxopiperidin-3-yl)-3,5-difluorophenyl)-3-(trifluoromethyl)azetidin-3-yl)carbamate] | 50 to 80 | ≤ 100 | 
CN(C(=O)N1CC(OC(=O)NC2(C)CN(c3cc(F)c(C4CCC(=O)NC4=O)c(F)c3)C2)C1)C1CC1 (stereo not drawn) [Compound 12, 1-(cyclopropyl(methyl)carbamoyl)azetidin-3-yl (1-(4-(2,6-dioxopiperidin-3-yl)-3,5-difluorophenyl)-3-methylazetidin-3-yl)carbamate] | 50 to 80 | ≤ 100 | 
COc1ccc(N(C)C(=O)N2CC(OC(=O)NC3CN(c4cc(F)c(C5CCC(=O)NC5=O)c(F)c4)C3)C2)cc1 (stereo not drawn) [Compound 13, 1-((4-methoxyphenyl)(methyl)carbamoyl)azetidin-3-yl(1-(4-(2,6-dioxopiperidin-3-yl)-3,5-difluorophenyl)azetidin-3-yl)carbamate] | 50 to 80 | ≤ 100 | 
CN(C)C(=O)N1CC(OC(=O)NC2(C)CN(c3cc(F)c(C4CCC(=O)NC4=O)c(F)c3)C2)C1 (stereo not drawn) [Compound 14, 1-(dimethylcarbamoyl)azetidin-3-yl (1-(4-(2,6-dioxopiperidin-3-yl)-3,5-difluorophenyl)-3-methylazetidin-3-yl)carbamate] | 10 to 50 | ≤ 100 | 

The next lines start with the values.

Dmax (CDK2) [%] | Ki (CRBN-DDB1) [nM] | CDK2 NanoBiT Dmax (%) (CDK2; HEK293 clonal line) | SMILES
50 to 80 | ≤ 100 |  | Cc1cc(N2CC(NC(=O)OC3CN(C(=O)N(C)C4CC4)C3)C2)cc(F)c1C1CCC(=O)NC1=O (stereo not drawn) [Compound 15, 1-(cyclopropyl(methyl)carbamoyl)azetidin-3-yl (1-(4-(2,6-dioxopiperidin-3-yl)-3-fluoro-5-methylphenyl)azetidin-3-yl)carbamate]
10 to 50 | ≤ 100 |  | CN(C(=O)N1CC[C@H](OC(=O)NC2CN(c3cc(F)c(C4CCC(=O)NC4=O)c(F)c3)C2)C1)C1CC1 (stereo partly drawn) [Compound 16, (S)-1-(cyclopropyl(methyl)carbamoyl)pyrrolidin-3-yl (1-(4-(2,6-dioxopiperidin-3-yl)-3,5-difluorophenyl)azetidin-3-yl)carbamate]
50 to 80 | ≤ 100 |  | CN(C(=O)N1CC(OC(=O)NC2CN(c3cc(F)c(C4CCC(=O)NC4=O)c(F)c3)C2)C1)c1ccccc1 (stereo not drawn) [Compound 17, 1-(methyl(phenyl)carbamoyl)azetidin-3-yl (1-(4-(2,6-dioxopiperidin-3-yl)-3,5-difluorophenyl)azetidin-3-yl)carbamate]
50 to 80 |  |  | O=C1CCC(c2c(F)cc(N3CC(NC(=O)OC4CN(C(=O)N5CCCC5)C4)C3)cc2F)C(=O)N1 (stereo not drawn) [Compound 32]
50 to 80 |  |  | N#Cc1c(N2CC(NC(=O)OCC3CC4(CCC4)C3)C2)ccc(C2CCC(=O)NC2=O)c1Cl (stereo not drawn) [Compound 85, spiro[3.3]heptan-2-ylmethyl (1-(3-chloro-2-cyano-4-(2,6-dioxopiperidin-3-yl)phenyl)azetidin-3-yl)carbamate]
50 to 80 |  |  | Cc1ccc(C)c(N(C)C(=O)C23CC(OC(=O)NC4CN(c5cc(F)c(C6CCC(=O)NC6=O)c(F)c5)C4)(C2)C3)c1 (stereo not drawn) [Compound 111]
 | ≤ 100 |  | [2H]C([2H])([2H])N(C(=O)N1CC(OC(=O)NC2CN(c3cc(F)c(C4CCC(=O)NC4=O)c(F)c3)C2)C1)c1ccc(C)cc1 (stereo not drawn) [Compound 118, 1-((methyl-d3)(p-tolyl)carbamoyl)azetidin-3-yl (1-(4-(2,6-dioxopiperidin-3-yl)-3,5-difluorophenyl)azetidin-3-yl)carbamate]
 | ≤ 100 |  | [2H]C([2H])([2H])N(C(=O)N1CC(OC(=O)NC2CN(c3cc(F)c(C4CCC(=O)NC4=O)c(F)c3)C2)C1)c1ccc(Cl)cc1 (stereo not drawn) [Compound 119, 1-((4-chlorophenyl)(methyl-d3)carbamoyl)azetidin-3-yl (1-(4-(2,6-dioxopiperidin-3-yl)-3,5-difluorophenyl)azetidin-3-yl)carbamate]
